Here are results for 19 compounds from patent US11180479B2 (HAPLOGEN GmbH, priority 2017, dated 2021).

In test [1] the test system is picornaviruses (CVB1, HRV-A2, HRV-A23, EV-68). Put plainly: Anti-picornavirus cytopathic effect (CPE) reduction assay on HeLa H1 cells. The test is classed as cell-based. As to conditions: 48 h, category from averaging EC50 values of four picornaviruses (CVB1, HRV-A2, HRV-A23, EV68), second symbol in parentheses. The protocol: Anti-Picornavirus Assay in Mammalian Cell Culture
The antiviral activity of selected compounds was tested using a cytopathic effect (CPE) reduction assay on HeLa H1 cells (ATCC CRL-1958). Briefly, cells were seeded in 96-well dishes (2×10^4 cells/well) in DMEM medium (Life technologies) supplemented with 10% FBS and PenStrep solution (100 U/mL Penicillin and 100 μg/mL streptomycin) and incubated at 37° C., 5% CO2 overnight. The next day, cells were pre-treated with serial dilutions of the compound in DMEM medium supplemented with 2% FBS and PenStrep for 2 h at 37° C., 5% CO2. Next, cells were infected with virus (CVB1, HRV-A2, HRV-A23, EV-68) at an multiplicity of infection (MOI) which results in a complete virus-induced CPE within 2 days in control wells (infected and vehicle-treated). After 48 h, supernatants were aspirated and 50 μl/well of CellTiterBlue reagent (Promega) diluted 1:5 in DMEM+2% FBS, was added to the cells. Plates were returned to the incubator and allowed to develop for 1.5 h. After that, plates were equilibrated to RT and subsequently, fluorescence was recorded (Excitation wavelength: 560 nm; emission wavelength: 590 nm) using a SpectraMax M5 multimode plate reader. Viability of cells was calculated according to the formula: V=(RFUCpd−RFUVeh/(RFUM−RFUVeh), where RFUCpd refers to infected and compound-treated cells, RFUVeh to infected and vehicle-treated cells and RFUM to uninfected and vehicle treated cells. Half-maximal effective concentrations (EC50) were calculated by non-linear regression analysis using the drc package in R (R Development. Core Team, 2005). EC50 categories as presented in Table 2 were calculated by averaging the EC50 values from four picornaviruses (CVB1, HRV-A2, HRV-A23, EV68).

In the next test the target is T1, PLA2G16 (Homo sapiens, UniProt P53816).
T1 construct: Hexa-His (N); made in house; host or cells: E. coli BL21(DE3)
T1 sequence (P53816 1-162): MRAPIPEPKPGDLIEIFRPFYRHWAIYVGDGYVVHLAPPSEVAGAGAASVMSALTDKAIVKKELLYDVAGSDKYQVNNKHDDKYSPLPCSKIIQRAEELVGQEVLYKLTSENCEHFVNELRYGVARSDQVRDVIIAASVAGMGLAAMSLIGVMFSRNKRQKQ
Nature of the test: Enzyme activity assay for PLA2G16 (Red/Green BODIPY PC-A2 fluorescence). The conditions noted are these: His-tagged PLA2G16, 4 min pre-incubation, compound 2 nM to 50 μM; first symbol in parentheses. The format is biochemical. The source says:
Purification and Enzyme Activity Assay for PLA2G16
A cDNA for PLA2G16 (NM_007069) was custom-synthesized by Genscript (Piscataway, USA) and inserted into a pET-based bacterial expression vector [Moffatt, B. A. and Studier, F. W. (1986) J. Mol. Biol. 189, 113-130; Rosenberg, A. H., Lade, B. N., Chui, D., Lin, S., Dunn, J. J., and Studier, F. W. (1987) Gene 56, 125-135], enabling the expression of N-terminally Hexa-His-tagged PLA2G16. E. coli BL21(DE3) (Agilent) were transformed with pET-His-PLA2G16 according to the manufacturer's instructions and plated on Carbenicillin-containing agar plates (final concentration: 100 μg/mL). A single clone was inoculated in 100 mL LB medium supplemented with 100 μg/mL Carbenicillin and the inoculated culture was grown at 37° C. overnight in a rotary shaker. On the next day, the bacterial culture was diluted in LB medium supplemented with 100 μg/mL Carbenicillin (30 mL overnight culture in 800 mL total culture volume). Bacteria were grown at 37° C. until the OD600 reached 0.6. Gene expression was induced by addition of 1 mM isopropyl-β-D-thiogalactopyranosid (IPTG) for 2 h at 18° C. Subsequently, bacteria were harvested by centrifugation (15 min; 10,000×g; 4° C.) and frozen at −80° C. The bacterial pellet was resuspended in Buffer A (50 mM Tris/HCl pH 7.5, 500 mM NaCl, 5% glycerol, 5 mM β-Mercaptoethanol and 1 mM PMSF) and lysed by addition of 1 mg/mL lysozyme (Sigma Aldrich) and 100 μg/mL DNasel-(Roche). The sample was incubated at 30° C. for 30 min to allow lysis to occur. Then, the lysate was cleared by centrifugation (15,000×g, 15 min, 4° C.) and incubated with 1.5 mL Ni-NTA agarose suspension (Qiagen) for 60 min at 4° C. The Ni-NTA agarose was washed with 10 mL Buffer A. Bound protein was eluted by applying a manual gradient of Buffer A supplemented with increasing concentrations of imidazole (Sigma Aldrich; 25/50/75/100/250 mM). Purified fractions were analyzed by SDS-PAGE followed by Coomassie staining to assess the purity.
Activity of the protein was assessed as follows:
Red/Green BODIPY® PC-A2 (Invitrogen, 1 mM in DMSO) was mixed with equal volumes of 1,2-Dioleoyl-sn-glycero-3-phosphocholine (DOPC; Sigma Aldrich, 10 mM in Ethanol) and 1,2-Dioleoyl-sn-glycero-3-phospho-rac-(1-glycerol) (DOPG; Sigma Aldrich, 10 mM in Ethanol) and 0.5 volumes of Cholesterol (CHOL; Sigma Aldrich, 10 mM in Ethanol) and vortexed for 5 s. The mixture (Red/Green BODIPY® PC-A2/DOPC/DOPG/CHOL) was diluted 1:91.4 in activity assay buffer (50 mM Tris/HCl pH 8.5, 100 mM NaCl) using a small-orifice pipette tip under constant vortexing. In the following, this preparation will be referred to as the “substrate solution”.
In order to evaluate their inhibitory potential, compounds were dissolved at 10 mM concentration in DMSO and directly spotted into assay plates (Corning, Cat. No. 3576) using acoustic liquid transfer (Labcyte Echo 525). Each compound was spotted at increasing concentrations, ranging from 2 nM to 50 μM (concentration in the final assay volume). 50 μl of PLA2G16 enzyme solution (diluted in activity buffer, supplemented with 5 mM L-Glutathione; Sigma Aldrich) was pre-incubated with compounds for 4 min., followed by addition of 50 μl of substrate solution. Fluorescence was recorded immediately after substrate addition for a total time of 10 min. using a SpectraMax M5 multimode reader (Excitation wavelength: 480 nm, emission wavelength: 530 nm). The relative increase of fluorescence over time is referred to as the enzyme activity. Half-maximal inhibitory concentrations (IC50) were derived by non-linear regression analysis using the drc package in R (R Development. Core Team, 2005).

Take `O=C(NCC1CC1)C(=O)[C@@H]1CNC(=O)[C@H]1Cc1ccccc1` (single isomer, unassigned) [FP-82]: the EC50 in test [1] is 1 to 10 µM. The IC50 at PLA2G16 was under 1 µM.

Turning to `O=C(NC1CC1)C(=O)[C@H]1CN(Cc2ncccn2)C(=O)[C@@H]1Cc1ccccc1` (racemic) [FP-35, Rac-2-[(3R,4R)-4-benzyl-5-oxo-1-[(pyrimidin-2-yl)methyl]pyrrolidin-3-yl]-N-cyclopropyl-2-oxoacetamide], the concentration for a half-maximal effect (EC50) in test [1] lay within 1 to 10 µM. Further, the concentration for half-maximal inhibition (IC50) on PLA2G16 is under 1 µM.

As to `N#Cc1ncncc1N1C[C@H](C(=O)C(=O)NC2CC2)[C@@H](Cc2ccccc2)C1=O` (racemic) [FP-65, Rac-2-[(3R,4R)-4-benzyl-1-(4-cyanopyrimidin-5-yl)-5-oxopyrrolidin-3-yl]-N-cyclopropyl-2-oxoacetamide], in test [1], the EC50 is 1 to 10 µM. Besides, the IC50 at PLA2G16 is under 1 µM.

Regarding `O=C(NCC(F)F)C(=O)[C@H]1CNC(=O)[C@@H]1Cc1ccccc1` (single isomer, unassigned) [FP-83], in test [1], the EC50 was under 1 µM. Besides, the half-inhibitory concentration (IC50) on PLA2G16 is under 1 µM.

On to `O=C(NC1CC1)C(=O)[C@H]1CN(CCN2CCCC2=O)C(=O)[C@@H]1Cc1ccccc1` (racemic) [FP-48, Rac-2-[(3R,4R)-4-benzyl-5-oxo-1-[2-(2-oxopyrrolidin-1-yl)ethyl]pyrrolidin-3-yl]-N-cyclopropyl-2-oxoacetamide], for which the EC50 in test [1] fell in the range of 1 to 10 µM. In addition, the IC50 at PLA2G16 was under 1 µM.

As for `O=C(NCC(F)F)C(=O)[C@@H]1CNC(=O)[C@H]1Cc1ccccc1` (single isomer, unassigned) [FP-84], the EC50 in test [1] was over 10 µM. Further, the IC50 on PLA2G16 is 1 to 10 µM.

Take `CCNC(=O)C(=O)[C@H]1CN(c2cncnc2)C(=O)[C@@H]1Cc1ccccc1` (racemic) [FP-55, Rac-2-[(3R,4R)-4-benzyl-5-oxo-1-(pyrimidin-5-yl)pyrrolidin-3-yl]-N-ethyl-2-oxo-acetamide]: the EC50 in test [1] is under 1 µM. Moreover, on PLA2G16, the IC50 was under 1 µM.

For `Cn1cnc(CN2C[C@H](C(=O)C(=O)NC3CC3)[C@@H](Cc3ccc(F)cc3)C2=O)n1` (racemic) [FP-51, Rac-N-cyclopropyl-2-[(3R,4R)-4-[(4-fluorophenyl)methyl]-1-[(1-methyl-1H-1,2,4-triazol-3-yl)methyl]-5-oxopyrrolidin-3-yl]-2-oxoacetamide], in test [1], the 50% effective concentration (EC50) lay in the range of 1 to 10 µM. In addition, the IC50 on PLA2G16 was under 1 µM.

Turning to `NC(=O)c1ccc(CN2C[C@H](C(=O)C(=O)NC3CC3)[C@@H](Cc3ccccc3)C2=O)cc1` (racemic), the concentration for half-maximal inhibition (IC50) on PLA2G16 was under 1 µM.

For `O=C(NC1CC1)C(=O)[C@H]1CN(c2cncnc2)C(=O)[C@@H]1c1ccccc1` (racemic) [FP-63, Rac-N-cyclopropyl-2-oxo-2-[(3R,4S)-5-oxo-4-phenyl-1-(pyrimidin-5-yl)pyrrolidin-3-yl]acetamide], the half-maximal effective concentration (EC50) in test [1] fell in the range of 1 to 10 µM. Further, at PLA2G16, the half-inhibitory concentration (IC50) is under 1 µM.

Consider `CC(C)CNC(=O)C(=O)[C@H]1CN(CC(=O)N(C)C)C(=O)[C@@H]1Cc1ccccc1` (single isomer, unassigned) [FP-92], for which the EC50 in test [1] was in the range of 1 to 10 µM. The 50% inhibitory concentration (IC50) at PLA2G16 is under 1 µM.

Turning to `Cc1ncncc1N1C[C@H](C(=O)C(=O)NC2CC2)[C@@H](Cc2ccccc2)C1=O` (racemic) [FP-67, Rac-2-[(3R,4R)-4-benzyl-1-(4-methylpyrimidin-5-yl)-5-oxopyrrolidin-3-yl]-N-cyclopropyl-2-oxoacetamide], the EC50 in test [1] was 1 to 10 µM. Also, the half-inhibitory concentration (IC50) at PLA2G16 was under 1 µM.

For `CCNC(=O)C(=O)[C@H]1CNC(=O)[C@@H]1Cc1ccc(F)cc1` (racemic) [FP-30, Rac-N-ethyl-2-[(3R,4R)-4-[(4-fluorophenyl)methyl]-5-oxopyrrolidin-3-yl]-2-oxoacetamide], in test [1], the EC50 is under 1 µM. The IC50 on PLA2G16 was under 1 µM.

For `CN1C[C@H](C(=O)C(=O)NC2CC2)[C@@H](C2CCCCC2)C1=O` (racemic) [FP-38, Rac-2-[(3R,4R)-4-cyclohexyl-1-methyl-5-oxopyrrolidin-3-yl]-N-cyclopropyl-2-oxoacetamide], in test [1], the half-maximal effective concentration (EC50) was 1 to 10 µM. For the same compound, at PLA2G16, the concentration for half-maximal inhibition (IC50) is under 1 µM.

For the compound `CC(C)CNC(=O)C(=O)[C@H]1CN(CCN2CCCC2=O)C(=O)[C@@H]1Cc1ccccc1` (racemic) [FP-47, Rac-2-[(3R,4R)-4-benzyl-5-oxo-1-[2-(2-oxopyrrolidin-1-yl)ethyl]pyrrolidin-3-yl]-N-(2-methylpropyl)-2-oxoacetamide], in test [1], the half-maximal effective concentration (EC50) lay in the range of 1 to 10 µM. The half-inhibitory concentration (IC50) on PLA2G16 was under 1 µM.

As for `O=C(NC1CC1)C(=O)[C@@H]1CN(c2cnccn2)C(=O)[C@H]1Cc1ccccc1` (single isomer, unassigned) [FP-94], the 50% effective concentration (EC50) in test [1] lay within 1 to 10 µM. Besides, the half-maximal inhibitory concentration (IC50) at PLA2G16 was under 1 µM.

On to `O=C(NC1CC1)C(=O)[C@H]1CN(c2cc(Cl)cc(OCc3ccccc3)n2)C(=O)[C@@H]1Cc1ccccc1` (racemic) [FP-72, Rac-2-[(3R,4R)-4-benzyl-1-[6-(benzyloxy)-4-chloropyridin-2-yl]-5-oxopyrrolidin-3-yl]-N-cyclopropyl-2-oxoacetamide], for which the 50% effective concentration (EC50) in test [1] was under 1 µM. At PLA2G16, the IC50 was under 1 µM.

As to `O=C(NC1CC1)C(=O)[C@H]1CN(Cc2ccncn2)C(=O)[C@@H]1Cc1ccccc1` (racemic) [FP-37, Rac-2-[(3R,4R)-4-benzyl-5-oxo-1-[(pyrimidin-4-yl)methyl]pyrrolidin-3-yl]-N-cyclopropyl-2-oxoacetamide], the EC50 in test [1] lay within 1 to 10 µM. Also, the half-maximal inhibitory concentration (IC50) at PLA2G16 was under 1 µM.

As for `CC(C)NC(=O)C(=O)[C@H]1CNC(=O)[C@@H]1c1ccccc1` (racemic) [FP-78, Rac-2-oxo-2-[(3R,4S)-5-oxo-4-phenylpyrrolidin-3-yl]-N-(propan-2-yl)acetamide], the EC50 in test [1] was 1 to 10 µM. In addition, the IC50 on PLA2G16 is under 1 µM.
